For one assay, the system named is HCVcc JFH-1. In words: Acute HCVcc infection of Huh7 cells, HCV RNA by RT-qPCR. The class given is cell-based, Hepatitis C virus (HCV). The procedure:
For experiments in growing cells, Huh7 cells were seeded 24 hours prior to use at 4×10^3 cells in each well of a 96-well plate (BD Biosciences, San Jose, Calif.). For experiments in non-growing cells, Huh7 cells were seeded in 96-well BIOCOAT culture plates (BD Biosciences) at a density of 8×10^3 cells/well in cDMEM. Upon reaching 90% confluence, media was replaced with 200 μl cDMEM supplemented with 1% (v/v) DMSO (Sigma), and cells were cultured for an additional 20 days, replacing medium every 2 days (Sainz, Jr. & Chisari (2006) J. Virol. 80:10253-7; Choi, et al. (2009) Xenobiotica 39:205-17). Cells were infected with HCVcc JFH-1 at an MOI of 1.0 or 0.1 FFU/cell for 12 hours. Cells were mock-treated or treated with increasing concentrations of ezetimibe 6 hours prior to infection (PRE), during the time of infection for 12 hours (CO), or immediately following infection for 60 hours (POST). For RT-qPCR analysis, total cellular RNA was extracted in 1× Nucleic Acid Purification Lysis Solution (Applied Biosystems, Foster City, Calif.) from triplicate wells at indicated times post infection. For HCV E2-positive foci assay analysis, medium was removed and cells were fixed with 4% paraformaldehyde (w/v) (Sigma) 72 hours post-infection and immunohistochemical staining for HCV E2 was performed as described herein.
Total cellular RNA was purified using an ABI PRISM™ 6100 Nucleic Acid PrepStation (Applied Biosystems), as per the manufacturer's instructions. One μg of purified RNA was used for cDNA synthesis using the TAQMAN reverse transcription reagents (Applied Biosystems), followed by SYBR green RT-qPCR using an Applied Biosystems 7300 real-time thermocycler (Applied Biosystems). […] HCV JFH-1 and human GAPDH RNA transcript levels were determined relative to a standard curve derived from serial dilutions of plasmid containing the JFH-1 HCV cDNA or the human GAPDH coding sequence, respectively. […]
Likewise dose-dependent and time-of-addition-dependent inhibition of HCV infection was observed when HCV RNA levels were quantified by RT-qPCR 24, 48 and 72 hours p.i.

Assay [1] concerns HCV genotype 2a subgenomic replicon. The experiment in a line: HCV sg2a replicon RNA replication in Huh7 cells, RT-qPCR. The class given is cell-based, Hepatitis C virus (HCV). To be noted: 72 hours post-treatment. From the text:
Huh7 cells, also known as Huh7/scr cells, are well-known in the art (Zhong, et al. (2005) Proc. Natl. Acad. Sci. USA 102, 9294-99; Gastaminza, et al. (2006) J. Virol. 80:11074-81; Zhong, et al. (2006) J. Virol. 80:11082-93; Sainz et al. (2009) PLoS ONE 4:e6561). […] The HCV sg2a replicon was established as previously described (Uprichard, et al. (2006) Virol. J. 3:89). Briefly the HCV genotype 2a subgenomic replicon RNA (psgJFH1; Kato, et al. (2003) Gastroenterology 125:1808-17) was XbaI linearized, in vitro transcribed using […] T7 (Ambion, Austin, Tex.) and transfected into cells using a modified electroporation protocol (Krieger, et al. (2001) J. Virol. 75(10):4614-24). All cells were cultured in complete Dulbecco's modified Eagle's medium (cDMEM) (Hyclone, Logan, Utah) supplemented with 10% fetal bovine serum (FBS) (Hyclone), 100 units/ml penicillin, […] streptomycin, and 2 mM L-glutamine (Gibco Invitrogen, Carlsbad, Calif.) and 500 μg/ml geneticin ((Invitrogen) for HCV replicon cells only).
Total cellular RNA was purified using an ABI PRISM™ 6100 Nucleic Acid PrepStation (Applied Biosystems), as per the manufacturer's instructions. […] HCV JFH-1 and human GAPDH RNA transcript levels were determined relative to a standard curve derived from serial dilutions of plasmid containing the JFH-1 HCV cDNA or the human GAPDH coding sequence, respectively. […]
In general terms: Replicon systems follow genome replication, usually without infectious particles.

“Also recorded” adds a separate entry of the source.

Turning to `O=C1[C@H](CC[C@H](O)c2ccc(F)cc2)[C@@H](c2ccc(O)cc2)N1c1ccc(F)cc1` [ezetimibe, 1-(4-fluorophenyl)-(3R)-[3-(4-fluorophenyl)-(3S)-hydroxypropyl]-(45)-(4-hydroxyphenyl)-2-azetidinone], the “inhibition of HCV infection (HCV RNA levels)” value in the assay with HCVcc JFH-1 (addition post-infection, 72 hours p.i.) is “ineffective”; in the assay with HCVcc JFH-1 (co-treatment) it was “potently inhibited HCV infection”. Moreover, the “protection of cells from subsequent infection, duration” value with HCVcc JFH-1 (pre-treatment with 25 μM for 6 hours before infection) is on record as “at least 48 hours”. Moreover, the “sg2a HCV RNA levels” value in assay [1] was “did not inhibit HCV subgenomic RNA replication; also recorded: no significant reduction”.

Values taken from patent publication US9034863B2, “Compositions and methods for inhibiting entry of a hepatic virus” (The Board of Trustees of the University of Illinois, priority 2008, dated 2015).
